Tests used:
Format in all cases: cell-based, human
[1] = system: HeLa cells expressing GFP-LC3; test: GFP-LC3 puncta quantification in the presence of AMPK inhibitor compound C; conditions: compound C 5 μM, 24 hours (FIG. 5b)
Method: GFP-LC3 puncta formation was quantified as previously described. In brief, HeLa cells expressing GFP-LC3 were treated with indicated concentrations of […], isoliensinine, dauricine, cepharanthine, hernandezine and thalidezine in the presence of AMPK inhibitor, compound C (CC, 5 μM), for 24 hours. The cells were then fixed in 4% paraformaldehyde for 20 minutes at room temperature and then rinsed with PBS. Slides were mounted with FluorSaveTM mounting media (Calbiochem) and examined by fluorescence microscopy. To quantify for autophagy, the percentage of cells with punctate GFP-LC3 fluorescence was calculated by counting the number of the cells with punctate GFP-LC3 fluorescence in GFP-positive cells. A minimum of 150 cells from 3 randomly selected fields were scored.

[2] = system: HeLa cancer cells; test: Quantification of autophagy GFP-LC3 puncta in HeLa cells; conditions: 20 μM liensinine or 10 μM others, 4 hours, compared to DMSO control (FIG. 2a)
Method: (§1) GFP-LC3 puncta formation was quantified as previously described. In brief, GFP-LC3 transfected cells grown on coverslips in a 6-well plate were treated with or without 20 μM of […], 10 μM of isoliensinine, dauricine, cepharanthine, hernandezine or thalidezine for 4 hours, the cells were then fixed in 4% paraformaldehyde for 20 minutes at room temperature and then rinsed with PBS. Slides were mounted with FluorSaveTM mounting media (Calbiochem, San Diego, Calif.) and examined by fluorescence microscopy. The number of GFP-positive cells with GFP-LC3 puncta formation was examined under the Nikon ECLIPSE 80i microscope. Representative images were captured with CCD digital camera Spot RT3TM (Diagnostic Instruments, Inc., Melville, N.Y.). To quantify for autophagy, the percentage of cells with punctate GFP-LC3 fluorescence was calculated by counting the number of the cells with punctate GFP-LC3 fluorescence in GFP-positive cells. A minimum of 150 cells from 3 randomly selected fields was scored.

[3] = system: HeLa cells expressing GFP-LC3; test: GFP-LC3 puncta quantification in the presence of autophagic inhibitor 3-MA; conditions: 20 μM liensinine or 10 μM others, 3-MA 5 mM, 4 hours (FIG. 3)
Method: GFP-LC3 puncta formation was quantified as previously described. In brief, HeLa cells expressing GFP-LC3 were treated with 20 μM of […], or 10 μM of isoliensinine, dauricine, cepharanthine, hernandezine or thalidezine in the presence of autophagic inhibitor, 3-methyl adenine (3-MA, 5 mM), for 4 hours. The cells were then fixed in 4% paraformaldehyde for 20 minutes at room temperature and then rinsed with PBS. Slides were mounted with FluorSaveTM mounting media (Calbiochem) and examined by fluorescence microscopy. To quantify for autophagy, the percentage of cells with punctate GFP-LC3 fluorescence was calculated by counting the number of the cells with punctate GFP-LC3 fluorescence in GFP-positive cells. A minimum of 150 cells from 3 randomly selected fields were scored.

[4] = system: a panel of cancer and normal cells; test: GFP-LC3 puncta formation in a panel of cancer and normal cells; conditions: fluorescent microscopy (FIG. 2c)
Method: as §1

COc1cc2c(cc1OC)[C@@H](Cc1ccc(Oc3cc(C[C@@H]4c5cc(OC)c(OC)cc5CCN4C)ccc3O)cc1)N(C)CC2 [dauricine]
compound-induced GFP-LC3 puncta formation in the presence of AMPK inhibitor (Compound C) [1]: significant reduction | GFP-LC3 puncta formation [2]: significantly induced | compound-induced GFP-LC3 puncta formation in the presence of autophagic inhibitor (3-MA) [3]: significant reduction | formation of GFP-LC3 puncta [4]: increased

COc1ccc2cc1Oc1ccc(cc1)C[C@H]1c3cc(c(OC)cc3CCN1C)Oc1c(OC)c(OC)c(OC)c3c1[C@H](C2)N(C)CC3 [hernandezine]
compound-induced GFP-LC3 puncta formation in the presence of AMPK inhibitor (Compound C) [1]: significant reduction | GFP-LC3 puncta formation [2]: significantly induced | compound-induced GFP-LC3 puncta formation in the presence of autophagic inhibitor (3-MA) [3]: significant reduction | formation of GFP-LC3 puncta [4]: increased

COc1ccc(C[C@@H]2c3cc(Oc4cc(C[C@@H]5c6cc(O)c(OC)cc6CCN5C)ccc4O)c(OC)cc3CCN2C)cc1 [isoliensinine]
compound-induced GFP-LC3 puncta formation in the presence of AMPK inhibitor (Compound C) [1]: significant reduction | GFP-LC3 puncta formation [2]: significantly induced | compound-induced GFP-LC3 puncta formation in the presence of autophagic inhibitor (3-MA) [3]: significant reduction | formation of GFP-LC3 puncta [4]: increased

COc1cc2c(cc1OC)[C@@H](Cc1ccc(O)c(Oc3cc4c(cc3OC)CCN(C)[C@@H]4Cc3ccc(O)cc3)c1)N(C)CC2 [liensinine]
compound-induced GFP-LC3 puncta formation in the presence of AMPK inhibitor (Compound C) [1]: significant reduction | GFP-LC3 puncta formation [2]: significantly induced | compound-induced GFP-LC3 puncta formation in the presence of autophagic inhibitor (3-MA) [3]: significant reduction | formation of GFP-LC3 puncta [4]: increased

thalidezine
compound-induced GFP-LC3 puncta formation in the presence of AMPK inhibitor (Compound C) [1]: significant reduction | GFP-LC3 puncta formation [2]: significantly induced | compound-induced GFP-LC3 puncta formation in the presence of autophagic inhibitor (3-MA) [3]: significant reduction | formation of GFP-LC3 puncta [4]: increased

From patent US9561220B2, “Group of alkaloids, the novel autophagic enhancers for treatment of cancers and neurodegenerative conditions thereof” (Macau University of Science and Technology, priority 2014, dated 2017)
